Measured values published in US4740233A, “Substituted 1,2,4-triazolo[1,5-a]-pyrimidine-2-sulfonamides and compositions and methods of controlling undesired vegetation and suppressing the nitrification of ammonium nitrogen in soil” (The Dow Chemical Company, priority 1986, dated 1988).

Columns and labels:
[1] = system: wheat; experiment: Postemergent control of plant species; assay type: in vivo, Triticum aestivum; settings: Triticum aestivum, post-emergence, 336 h, read-out: percent postemergent control
In short: (§1)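 Foliar spray, 2-4 leaf stage, greenhouse. Formulation: acetone solution (2x final conc.) mixed 1:1 with water + 0.1% surface active agent. ~2 wk hold, watered as needed. Readout = % growth reduction vs untreated same-species controls.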

[2] = system: corn; experiment: Postemergent control of plant species; assay type: in vivo, Zea mays; settings: Zea mays, post-emergence, 336 h, read-out: percent postemergent control
In short: as §1

[3] = system: soybean; experiment: Postemergent control of plant species; assay type: in vivo, Glycine max.; settings: Glycine max, post-emergence, 336 h, read-out: percent postemergent control
In short: as §1

[4] = system: yellow nutsedge; experiment: Preemergent control of plant species; assay type: in vivo, Cyperus esculentus; settings: Cyperus, pre-emergence, 336 h; 0.25 lb/acre; read-out: percent preemergent control
In short: (§2)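 Growth reduction relative to untreated plants of the same species, assessed two weeks after treatment, defines the control value. Compositions, mostly aqueous emulsions, were deposited uniformly on seeded greenhouse soil beds at the tabulated rates, with a water-treated bed as reference.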

[5] = system: yellow foxtail; experiment: Postemergent control of plant species; assay type: in vivo, Setaria lutescens; settings: Setaria, post-emergence, 336 h, read-out: percent postemergent control
In short: as §1

[6] = system: sorghum; experiment: Postemergent control of plant species; assay type: in vivo, Sorghum vulgare; settings: Sorghum, post-emergence, 336 h, read-out: percent postemergent control
In short: as §1

[7] = system: crabgrass; experiment: Preemergent control of plant species; assay type: in vivo, Digitaria spp.; settings: Digitaria sanguinalis, pre-emergence, 336 h; 0.25 lb/acre; read-out: percent preemergent control
In short: as §2

[8] = system: rape; experiment: Preemergent control of plant species; assay type: in vivo, Brassica napus; settings: Brassica napus, pre-emergence, 336 h; 0.25 lb/acre; read-out: percent preemergent control
In short: as §2

[9] = system: velvetleaf; experiment: Preemergent control of plant species; assay type: in vivo, Abutilon theophrasti; settings: Abutilon theophrasti, pre-emergence, 336 h; 0.25 lb/acre; read-out: percent preemergent control
In short: as §2

[10] = system: johnson grass; experiment: Preemergent control of plant species; assay type: in vivo, Sorghum halepense; settings: Sorghum halepense, pre-emergence, 336 h; 0.25 lb/acre; read-out: percent preemergent control
In short: as §2

[11] = system: corn; experiment: Preemergent control of plant species; assay type: in vivo, Zea mays; settings: Zea mays, pre-emergence, 336 h; 0.25 lb/acre; read-out: percent preemergent control
In short: as §2

[12] = system: rape; experiment: Postemergent control of plant species; assay type: in vivo, Brassica napus; settings: Brassica napus, post-emergence, 336 h, read-out: percent postemergent control
In short: as §1

[13] = system: yellow foxtail; experiment: Preemergent control of plant species; assay type: in vivo, Setaria lutescens; settings: Setaria, pre-emergence, 336 h; 0.25 lb/acre; read-out: percent preemergent control
In short: as §2

[14] = system: wild oats; experiment: Postemergent control of plant species; assay type: in vivo, Avena fatua; settings: Avena fatua, post-emergence, 336 h, read-out: percent postemergent control
In short: as §1

[15] = system: pigweed; experiment: Preemergent control of plant species; assay type: in vivo, Amaranthus spp.; settings: Amaranthus retroflexus, pre-emergence, 336 h; 0.25 lb/acre; read-out: percent preemergent control
In short: as §2

[16] = system: johnson grass; experiment: Postemergent control of plant species; assay type: in vivo, Sorghum halepense; settings: Sorghum halepense, post-emergence, 336 h, read-out: percent postemergent control
In short: as §1

[17] = system: cocklebur; experiment: Postemergent control of plant species; assay type: in vivo, Xanthium spp.; settings: Xanthium strumarium, post-emergence, 336 h, read-out: percent postemergent control
In short: as §1

[18] = system: crabgrass; experiment: Postemergent control of plant species; assay type: in vivo, Digitaria spp.; settings: Digitaria sanguinalis, post-emergence, 336 h, read-out: percent postemergent control
In short: as §1

[19] = system: jimsonweed; experiment: Preemergent control of plant species; assay type: in vivo, Datura stramonium; settings: Datura stramonium, pre-emergence, 336 h; 0.25 lb/acre; read-out: percent preemergent control
In short: as §2

[20] = system: velvetleaf; experiment: Postemergent control of plant species; assay type: in vivo, Abutilon theophrasti; settings: Abutilon theophrasti, post-emergence, 336 h, read-out: percent postemergent control
In short: as §1

[21] = system: nitrification of ammonium nitrogen; experiment: Suppression of nitrification of ammonium nitrogen in soil; settings: 27° C.
In short: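 Soil (20 g) moistened to its 1/3 bar tension value, mixed with test chemical and incubated sealed for two weeks at 27° C. Nitrate extracted with ammonium sulfate solution and measured by nitrate-specific ion electrode; value given as % NH4-N remaining.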

[22] = system: rice; experiment: Preemergent control of plant species; assay type: in vivo, Oryza sativa; settings: Oryza sativa, pre-emergence, 336 h; 0.25 lb/acre; read-out: percent preemergent control
In short: as §2

[23] = system: wild oats; experiment: Preemergent control of plant species; assay type: in vivo; settings: Avena fatua, pre-emergence, 336 h; 0.25 lb/acre; read-out: percent preemergent control
In short: as §2

[24] = system: annual morning glory; experiment: Postemergent control of plant species; assay type: in vivo, Ipomoea spp.; settings: Ipomoea, post-emergence, 336 h, read-out: percent postemergent control
In short: as §1

SMILES | plant injury at 500 ppm [1] [%] | plant injury at 500 ppm [2] [%] | plant injury at 500 ppm [3] [%] | pest or weed control at 280.212 g/ha [4] [%] | pest or weed control at 500 ppm [5] [%] | plant injury at 500 ppm [6] [%] | pest or weed control at 280.212 g/ha [7] [%] | plant injury at 280.212 g/ha [8] [%] | pest or weed control at 280.212 g/ha [9] [%] | pest or weed control at 280.212 g/ha [10] [%] | plant injury at 280.212 g/ha [11] [%] | plant injury at 500 ppm [12] [%] | pest or weed control at 280.212 g/ha [13] [%] | pest or weed control at 500 ppm [14] [%] | pest or weed control at 280.212 g/ha [15] [%] | pest or weed control at 500 ppm [16] [%] | pest or weed control at 500 ppm [17] [%] | pest or weed control at 500 ppm [18] [%] | pest or weed control at 280.212 g/ha [19] [%] | pest or weed control at 500 ppm [20] [%] | other results
COC(=O)c1cccc(F)c1NS(=O)(=O)c1nc2nc(C)cc(C)n2n1 [Compound 26] | 30 | 80 | 95 | 100 | 90 | 90 | 100 | 98 | 95 | 98 | 100 | 100 | 100 | 0 | 100 | 100 | 100 | 90 | 100 | 100 | % NH4-N Remaining After 2 Weeks Incubation ([21]; 0.06 ppm): 37%; % NH4-N Remaining After 2 Weeks Incubation ([21]; 0.125 ppm): 45%; % NH4-N Remaining After 2 Weeks Incubation ([21]; 0.25 ppm): 65%; % NH4-N Remaining After 2 Weeks Incubation ([21]; 0.5 ppm): 73%; % NH4-N Remaining After 2 Weeks Incubation ([21]; 1 ppm): 79%; plant injury at 280.212 g/ha [22]: 100%; pest or weed control at 280.212 g/ha [23]: 40%; pest or weed control at 500 ppm [24]: 90%
Cc1cc(C)n2nc(S(=O)(=O)Nc3ccc(Cl)cc3C(F)(F)F)nc2n1 [Compound 34] | 0 | 0 | 90 | 70 | 0 | 60 | 0 | 95 | 80 | 80 | 0 | 100 | 0 | 0 | 50 | 20 | 100 | 0 | 0 | 100 | % NH4-N Remaining After 2 Weeks Incubation ([21]; 0.01 ppm): 11%; % NH4-N Remaining After 2 Weeks Incubation ([21]; 0.1 ppm): 51%; % NH4-N Remaining After 2 Weeks Incubation ([21]; 1 ppm): 78%; % NH4-N Remaining After 2 Weeks Incubation ([21]; 10 ppm): 90%; plant injury at 280.212 g/ha [22]: 40%; pest or weed control at 280.212 g/ha [23]: 0%; pest or weed control at 500 ppm [24]: 75%
